Patent US12329158B2, “Large-scale methods of uniformly coating packaging surfaces with a volatile antimicrobial to preserve food freshness” (AGROFRESH INC., priority 2013, dated 2025)
Read-outs that look alike come from different tables or passages of the source.

Legend:
Test in all cases: Volatile MIC of Samples 1-4 (Example 19)
Format in all cases: cell-based
Monilinia fructicola = settings: 50 µl/disk
Alternaria alternata = settings: 50 µl/disk; for MIC: Alternaria alternata, read-out: MIC mg/l Alternaria alternata
Penicillium expansum = settings: 50 µl/disk
Botrytis cinerea = settings: 50 µl/disk; for MIC: Botrytis cinerea, read-out: MIC mg/l Botrytis cinerea
Description: A 3-ml volume of full-strength Potato Dextrose Agar (PDA) is added to each well. […] Cat. No. 1001-0155) are placed on the underside of a polyethylene PCR plate sealing film. […] The acetone is permitted to evaporate for 5 minutes. The headspace around the Botrytis cinerea inoculum is then sealed inside the well by the film with the adhering disk containing the fungicide. Plates are inverted to prevent any possibility of the chemical from flaking from the disk and falling onto the inoculated agar.

Glomerella cingulata = settings: 50 µl/disk; first test (Table 15)

| MIC (Monilinia fructicola; Monilinia fructicola, repeat test (Table 16), read-out: MIC mg/l Monilinia fructicola) [mg/L] | MIC (Alternaria alternata; first test (Table 15)) [mg/L] | MIC (Alternaria alternata; repeat test (Table 16)) [mg/L] | MIC mg/l Penicillium expansum (Penicillium expansum; repeat test (Table 16)) [mg/L] | MIC (Penicillium expansum; Penicillium expansum, first test (Table 15), read-out: MIC mg/l Penicillium expansum) [mg/L] | MIC (Botrytis cinerea; first test (Table 15)) [mg/L] | MIC (Botrytis cinerea; repeat test (Table 16)) [mg/L] | MIC mg/l Monilinia fructicola (Monilinia fructicola; first test (Table 15)) [mg/L] | MIC mg/l Glomerella cingulata (Glomerella cingulata) [mg/L] | MIC mg/l Alternaria alternata (Alternaria alternata; first test (Table 15)) [mg/L] | MIC mg/l Penicillium expansum (Penicillium expansum; first test (Table 15)) [mg/L] | MIC mg/l Botrytis cinerea (Botrytis cinerea; first test (Table 15)) [mg/L] | MIC mg/l Botrytis cinerea (Botrytis cinerea; repeat test (Table 16)) [mg/L] | Structure (SMILES) | MIC mg/l Monilinia fructicola (Monilinia fructicola; repeat test (Table 16)) [mg/L] | MIC mg/l Alternaria alternata (Alternaria alternata; repeat test (Table 16)) [mg/L] |
| --- | --- | --- | --- | --- | --- | --- | --- | --- | --- | --- | --- | --- | --- | --- | --- |
| 2.2 | 22 | > 2.2 | 8.9 | 8.9 | < 0.6 | 0.6 |  |  |  |  |  |  | Fc1ccc2c(c1)COB2OCCOB1OCc2cc(F)ccc21 [Sample 1] |  |  |
|  |  |  | 8.9 |  |  |  | 35.7 | 142.9 | 8.9 | 8.9 | <0.6 | 2.2 | c1ccc2c(c1)COB2OCCOB1OCc2ccccc21 [Sample 2] |  |  |
|  |  |  | 8.9 |  |  |  |  |  | 2.2 | 4.5 | <0.6 | 1.1 | CC(C)(OB1OCc2cc(F)ccc21)C(C)(C)OB1OCc2cc(F)ccc21 [Sample 3] | 1.1 | >2.2 |

| Structure (SMILES) | MIC (Monilinia fructicola; Monilinia fructicola, repeat test (Table 16), read-out: MIC mg/l Monilinia fructicola) [mg/L] | MIC (Alternaria alternata; first test (Table 15)) [mg/L] | MIC (Alternaria alternata; repeat test (Table 16)) [mg/L] | MIC mg/l Penicillium expansum (Penicillium expansum; repeat test (Table 16)) [mg/L] | MIC (Penicillium expansum; Penicillium expansum, first test (Table 15), read-out: MIC mg/l Penicillium expansum) [mg/L] | MIC (Botrytis cinerea; first test (Table 15)) [mg/L] | MIC (Botrytis cinerea; repeat test (Table 16)) [mg/L] | MIC mg/l Monilinia fructicola (Monilinia fructicola; first test (Table 15)) [mg/L] | MIC mg/l Glomerella cingulata (Glomerella cingulata) [mg/L] | MIC mg/l Alternaria alternata (Alternaria alternata; first test (Table 15)) [mg/L] | MIC mg/l Penicillium expansum (Penicillium expansum; first test (Table 15)) [mg/L] | MIC mg/l Botrytis cinerea (Botrytis cinerea; first test (Table 15)) [mg/L] | MIC mg/l Botrytis cinerea (Botrytis cinerea; repeat test (Table 16)) [mg/L] | MIC mg/l Monilinia fructicola (Monilinia fructicola; repeat test (Table 16)) [mg/L] | MIC mg/l Alternaria alternata (Alternaria alternata; repeat test (Table 16)) [mg/L] |
| --- | --- | --- | --- | --- | --- | --- | --- | --- | --- | --- | --- | --- | --- | --- | --- |
| CC(COB1OCc2cc(F)ccc21)OB1OCc2cc(F)ccc21 (stereo not shown) [Sample 4] |  |  |  | 8.9 |  |  |  |  |  | 1.1 | 8.9 | <0.6 | 0.6 | 1.1 | >2.2 |
